Measured values: US9067898B1, “Isothiazole derivatives as GPR120 agonists for the treatment of type II diabetes” (Janssen Pharmaceutica NV, priority 2014, dated 2015)

Key:
Human GPR120 short form = molecular target: T1, Human GPR120 short form (Homo sapiens, UniProt Q5NUL3); test: Human GPR120 calcium flux assay (FLIPR), Procedure Calcium A; assay type: cell-based; settings: HEK-293 cells expressing human GPR120 short form, 2500 cells/well; read-out: GPR120 Ca2+ Assay A EC50
T1 construct: expressed in transfected cells
T1 sequence (Q5NUL3 1-361): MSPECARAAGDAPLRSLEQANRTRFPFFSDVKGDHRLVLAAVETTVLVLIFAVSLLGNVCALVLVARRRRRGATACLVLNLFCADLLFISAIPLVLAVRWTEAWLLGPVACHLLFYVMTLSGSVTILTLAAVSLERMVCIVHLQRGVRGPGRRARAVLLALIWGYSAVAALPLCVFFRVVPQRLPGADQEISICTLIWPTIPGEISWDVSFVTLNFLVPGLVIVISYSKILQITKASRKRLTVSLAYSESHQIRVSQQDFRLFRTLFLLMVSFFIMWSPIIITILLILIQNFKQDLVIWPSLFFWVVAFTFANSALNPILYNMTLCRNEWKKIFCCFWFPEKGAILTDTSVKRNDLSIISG
Method in brief: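 HEK293 cells stably expressing the short isoform (NM_001195755.1), 2500/well, starved 1 h, then loaded with Fluo-4 NW plus probenecid (30 min 37 °C, 15 min RT). Compound solutions 0.012–100 μM, 0.2% DMSO final; FLIPR read 300 s after addition. EC50 from Fmax−Fmin fitted to variable-slope sigmoid (Hill <2).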

[1] = molecular target: T2, long form of human GPR120 (Homo sapiens, UniProt Q5NUL3); test: Human GPR120 DiscoveRx PathHunter Beta-Arrestin assay, Procedure β-arrestin A; assay type: cell-based; settings: PathHunter CHO-K1 GPR120 β-Arrestin cell line, 3000 cells per well, read-out: hGPR120 β-arrestin A EC50
T2 construct: host or cells: PathHunter CHO-K1 GPR120 β-Arrestin Cell Line
Description: The binding of an agonist (medium/long chain fatty acids or small molecule agonists) to the G-protein-coupled receptor GPR120 activates phospholipase C, leading to release of intracellular Ca^+2 through the generation of inositol 1,4,5-trisphosphate (InsP3 or IP3). GPR120 activation can also trigger intracellular signaling via recruitment of Beta-Arrestin. In the present method, agonist-induced activation of the human GPR120 receptor is monitored through the use of PathHunter CHO-K1 GPR120 Beta-Arrestin Cell Line engineered by DiscoveRx, as detailed below. The cell lines are designed to co-express both the ProLink/Enzyme Donor (PK)-tagged GPCR and the Enzyme […] (EA)-tagged Beta-Arrestin fusion proteins. Upon GPR120 receptor stimulation/activation, the EA-tagged Beta-Arrestin portion is translocated to the tagged receptor, where the two enzyme fragments are brought within close proximity. Under these conditions, these fragments can interact and form an active Beta-gal enzyme complex through Enzyme Fragment Complementation (EFC). This active Beta-gal complex can enzymatically hydrolyse the substrate to produce a detectable light signal; therefore, activation as a function of agonist concentration can be expressed as an EC50 value to determine relative compound activities. This in vitro assay therefore serves to assess compound agonist activity of the GPR120. Procedure β-Arrestin A: In Procedure β-arrestin A, the cell used were PathHunter CHO-K1 GPR120 β-Arrestin Cell Line, expressing the long form of human GPR120 (Genbank accession number NM 181745), with 3000 cells per well. Procedure β-Arrestin B: In Procedure 3-arrestin B the cells used were PathHunter CHO-K1 GPR120S β-Arrestin Cell Line, expressing the short form of the GPR120 receptor (Accession #NM_181745), with 5000 cells/well. Assay Procedure:
The selected CHO-K1 GPR120 β-Arrestin cells were cultured in Ham's F12 media supplemented with 10% fetal bovine serum (FBS), 1% Glutamine, lx p/s, 800 μg/mL G418 and 300 μg/mL Hygromycin B (for selection). Cell stocks were maintained and grown in a sub-confluent state using standard cell culture procedures. The day before the experiment, the cells were harvested with non-enzymatic cell dissociation buffer and re-suspended in complete growth media at the desired concentration. A Corning 384-plate was then seeded with the proper number of cells in a volume of 25 μL, per well. The seeded plates were incubated overnight at 37° C.
On the day of the experiment, the Assay Buffer containing (a) HBSS with Ca^++ and Mg^++, (b) 20 mM HEPES, and (c) 0.1% BSA stabilizer (pH 7.4) was prepared. The growth medium was gently removed from the cell plates and 20 μL of Assay Buffer added to each well. The plate was then incubated at 37° C. for 60 min. Test compounds were serially diluted in Assay Buffer to desired concentrations (more particularly to one or more of the following μM concentrations: 25, 12.5, 6.25, 3.125, 1.5625, 0.78125, 0.390625, 0.1953125, 0.09765625, 0.048828125, 0.024414063, 0.012207031). Five μL of compound dilution was then added to each well and the plate incubated at 37° C. for 90 min. The detection reagents were prepared according to the manufacture's instruction. Twelve μL of the detection reagents were added to each well and the plate incubated at room temperature for 60 min.
The plates were read on an EnVision instrument, using Protocol name: Luminescence, Plate type: 384 Costar, Measurement height: 3 mm, Measurement time: 1 s, Aperture: 384 Plate aperture. The % activity relative to the positive control was calculated using the following equation:
The % Activity values were plotted versus the concentration of test compound and fitted to a sigmoidal dose-response curve with a Hill slope=1 (fixed value) using nonlinear regression with GraphPad Prism 5.0 to calculate the EC50 values. […]

T2 sequence (Q5NUL3 1-377 isoform Q5NUL3-1): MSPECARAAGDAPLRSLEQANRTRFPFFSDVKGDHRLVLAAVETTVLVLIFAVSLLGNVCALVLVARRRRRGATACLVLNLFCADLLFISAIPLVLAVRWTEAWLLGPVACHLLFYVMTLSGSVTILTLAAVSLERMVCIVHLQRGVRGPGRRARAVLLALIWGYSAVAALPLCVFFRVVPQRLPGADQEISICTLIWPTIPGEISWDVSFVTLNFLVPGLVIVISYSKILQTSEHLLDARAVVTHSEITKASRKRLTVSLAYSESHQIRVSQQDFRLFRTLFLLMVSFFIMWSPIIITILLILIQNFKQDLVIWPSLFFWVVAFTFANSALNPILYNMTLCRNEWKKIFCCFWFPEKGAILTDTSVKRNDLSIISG
T2 sequence (P32121 whole entry partner): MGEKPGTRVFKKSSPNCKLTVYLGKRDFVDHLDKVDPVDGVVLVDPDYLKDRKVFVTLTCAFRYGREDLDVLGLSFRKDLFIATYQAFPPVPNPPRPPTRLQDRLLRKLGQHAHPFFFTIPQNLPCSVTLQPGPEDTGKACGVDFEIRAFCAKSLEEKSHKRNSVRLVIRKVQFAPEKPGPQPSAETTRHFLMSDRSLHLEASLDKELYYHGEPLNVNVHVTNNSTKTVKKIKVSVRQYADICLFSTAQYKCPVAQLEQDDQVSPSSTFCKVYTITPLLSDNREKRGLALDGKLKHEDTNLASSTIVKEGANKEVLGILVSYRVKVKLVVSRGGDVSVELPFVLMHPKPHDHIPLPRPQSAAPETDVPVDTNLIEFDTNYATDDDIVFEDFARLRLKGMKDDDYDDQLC

Q: For `CCc1ccc(-c2sccc2COc2ccc(CCC(=O)O)c(C)c2C)cc1` [Cpd 49, 3-(4-((2-(4-ethylphenyl)thiophen-3-yl)methoxy)-2,3-dimethylphenyl)propanoic acid], which EC50 (Human GPR120 short form) is on record?
A: 0.17 µM

Q: What about the EC50 [1] of the same compound?
A: 0.304 µM

Q: How did the EC50 (Human GPR120 short form) turn out when `O=C(O)CCc1cc(F)c(OCc2c(Cl)nsc2-c2ccc(Cl)cc2F)c(F)c1` [Cpd 114, 3-(4-((3-chloro-5-(4-chloro-2-fluorophenyl)isothiazol-4-yl)methoxy)-3,5-difluorophenyl)propanoic acid] was run?
A: 0.1 µM

Q: What about the EC50 [1] of the same compound?
A: 0.295 µM

Q: Which results are given for `CCc1ccc(-c2nsc(C(F)(F)F)c2COc2c(F)cc(CC(C)C(=O)O)cc2F)cc1` (stereo not shown) [Cpd 80, 3-(4-[[3-(4-ethylphenyl)-5-(trifluoromethyl)-1,2-thiazol-4-yl]methoxy]-3,5-difluorophenyl)-2-methylpropanoic acid]?
A: EC50 (Human GPR120 short form): 0.051 µM; EC50 [1]: 0.246 µM

Q: For `Cc1c(CCC(=O)O)ccc(OCc2csnc2-c2ccc(Br)cc2)c1C` [Cpd 170, 3-(4-((3-(4-bromophenyl)isothiazol-4-yl)methoxy)-2,3-dimethylphenyl)propanoic acid], which EC50 (Human GPR120 short form) is on record?
A: 0.225 µM

Q: And the EC50 [1]?
A: 0.813 µM

Q: Which results are given for `CCc1ccc(-c2cc(C)sc2COc2ccc(CCC(=O)O)c(C)c2C)cc1` [Cpd 13, 3-(4-((3-(4-ethylphenyl)-5-methylthiophen-2-yl)methoxy)-2,3-dimethylphenyl)propanoic acid]?
A: EC50 (Human GPR120 short form): 0.163 µM; EC50 [1]: 0.498 µM

Q: How did the EC50 (Human GPR120 short form) turn out when `Cc1c(CCC(=O)O)cc(F)c(OCc2csnc2-c2ccc(Cl)cc2)c1F` [Cpd 231, 3-(4-((3-(4-chlorophenyl)isothiazol-4-yl)methoxy)-3,5-difluoro-2-methylphenyl)propanoic acid] was run?
A: 1.02 µM

Q: What about the EC50 [1] of the same compound?
A: 0.961 µM

Q: For `O=C(O)CCc1ccc(OCc2c(Cl)nsc2-c2ccc(Cl)cc2)c(F)c1F` [Cpd 72, 3-(4-[[3-chloro-5-(4-chlorophenyl)-1,2-thiazol-4-yl]methoxy]-2,3-difluorophenyl)propanoic acid], which EC50 (Human GPR120 short form) is on record?
A: 0.039 µM

Q: What about the EC50 [1] of the same compound?
A: 0.103 µM

Q: Which EC50 (Human GPR120 short form) does the source give for `Cc1c(CCCO)cc(F)c(OCc2c(-c3ccc(Cl)cc3)nsc2C(F)(F)F)c1F` [Cpd 223, 3-(4-((3-(4-chlorophenyl)-5-(trifluoromethyl)isothiazol-4-yl)methoxy)-3,5-difluoro-2-methylphenyl)propan-1-ol] here?
A: 0.77 µM

Q: And the EC50 [1]?
A: 0.182 µM

Q: With `CCc1ccc(-c2nsc(C(F)(F)F)c2COc2c(F)cc(CCC(=O)O)cc2F)cc1` [Cpd 70, 3-(4-[[3-(4-ethylphenyl)-5-(trifluoromethyl)-1,2-thiazol-4-yl]methoxy]-3,5-difluorophenyl)propanoic acid] as the compound, how does the EC50 (Human GPR120 short form) read?
A: 0.034 µM

Q: What about the EC50 [1] of the same compound?
A: 0.098 µM

Q: Which EC50 (Human GPR120 short form) does the source give for `COc1nsc(-c2ccc(C)cc2F)c1COc1c(F)cc(CCC(=O)O)cc1F` [Cpd 123, 3-(3,5-difluoro-4-[[5-(2-fluoro-4-methylphenyl)-3-methoxy-1,2-thiazol-4-yl]methoxy]phenyl) propanoic acid] here?
A: 0.111 µM

Q: What about the EC50 [1] of the same compound?
A: 0.303 µM

Q: What does the source list for `CCc1ccc(-c2cscc2COc2c(F)cc(CCC(=O)O)cc2F)cc1` [Cpd 53, 3-(4-((4-(4-ethylphenyl)thiophen-3-yl)methoxy)-3,5-difluorophenyl)propanoic acid]?
A: EC50 (Human GPR120 short form): 0.191 µM; EC50 [1]: 0.668 µM

Q: Which results are given for `CCc1ccc(-c2sccc2COc2c(F)cc(CCC(=O)O)cc2F)cc1` [Cpd 52, 3-(4-((2-(4-ethylphenyl)thiophen-3-yl)methoxy)-3,5-difluorophenyl)propanoic acid]?
A: EC50 (Human GPR120 short form): 0.181 µM; EC50 [1]: 0.344 µM

Q: How did the EC50 (Human GPR120 short form) turn out when `O=C(O)CCc1cc(F)c(OCc2c(-c3ccc(Cl)cc3)csc2C(F)(F)F)c(F)c1` [Cpd 35, 3-(4-((4-(4-chlorophenyl)-2-(trifluoromethyl)thiophen-3-yl)methoxy)-3,5-difluorophenyl)propanoic acid] was run?
A: 0.07 µM

Q: And the EC50 [1]?
A: 0.27 µM

Q: Which results are given for `COc1ccc(-c2nsc(C(F)(F)F)c2COc2ccc(CCC(=O)O)c(C)c2C)cc1` [Cpd 86, 3-(4-[[3-(4-methoxyphenyl)-5-(trifluoromethyl)-1,2-thiazol-4-yl]methoxy]-2,3-dimethylphenyl) propanoic acid]?
A: EC50 (Human GPR120 short form): 0.057 µM; EC50 [1]: 0.085 µM

Q: Which EC50 (Human GPR120 short form) does the source give for `Cc1cc(OCc2c(-c3ccc(Cl)c(F)c3)nsc2C(F)(F)F)c(F)cc1CCC(=O)O` [Cpd 148, 3-(4-((3-(4-chloro-3-fluorophenyl)-5-(trifluoromethyl)isothiazol-4-yl)methoxy)-5-fluoro-2-methylphenyl)propanoic acid] here?
A: 0.165 µM

Q: What about the EC50 [1] of the same compound?
A: 0.242 µM

Q: Which EC50 (Human GPR120 short form) does the source give for “3-(4-((3-chloro-5-(4-ethylphenyl)isothiazol-4-yl)methoxy)-2,3,5-trifluorophenyl)propan-1-ol [Cpd 140]” here?
A: 0.2 µM

Q: And the EC50 [1]?
A: 0.116 µM

Q: `O=C(O)CCc1cc(F)c(OCc2csnc2-c2ccc(Cl)cc2)c(F)c1` [Cpd 179, 3-(4-((3-(4-chlorophenyl)isothiazol-4-yl)methoxy)-3,5-difluorophenyl)propanoic acid] was tested. Which EC50 (Human GPR120 short form) did it give?
A: 0.268 µM

Q: What about the EC50 [1] of the same compound?
A: 0.49 µM

Q: `CCc1ccc(-c2nsc(C(F)(F)F)c2COc2c(F)cc(CCC(=O)O)c(F)c2F)cc1` [Cpd 117, 3-(4-((3-(4-ethylphenyl)-5-(trifluoromethyl)isothiazol-4-yl)methoxy)-2,3,5-trifluorophenyl)propanoic acid] was tested. Which EC50 (Human GPR120 short form) did it give?
A: 0.104 µM

Q: What about the EC50 [1] of the same compound?
A: 0.254 µM

Q: Which EC50 (Human GPR120 short form) does the source give for `CCc1ccc(-c2snc(Cl)c2COc2c(F)cc(CCC(=O)O)c(F)c2F)cc1` [Cpd 111, 3-(4-((3-chloro-5-(4-ethylphenyl)isothiazol-4-yl)methoxy)-2,3,5-trifluorophenyl)propanoic acid] here?
A: 0.098 µM

Q: What about the EC50 [1] of the same compound?
A: 0.244 µM

Q: For `Cc1c(CCC(=O)O)ccc(OCc2c(Cl)nsc2-c2ccccc2)c1C` [Cpd 101, 3-[4-[(3-chloro-5-phenyl-1,2-thiazol-4-yl)methoxy]-2,3-dimethylphenyl]propanoic acid], which EC50 (Human GPR120 short form) is on record?
A: 0.076 µM

Q: What about the EC50 [1] of the same compound?
A: 0.189 µM

Q: How did the EC50 (Human GPR120 short form) turn out when `O=C(O)CCc1cc(F)c(OCc2csnc2-c2ccc(Br)cc2)c(F)c1` [Cpd 169, 3-(4-((3-(4-bromophenyl)isothiazol-4-yl)methoxy)-3,5-difluorophenyl)propanoic acid] was run?
A: 0.225 µM

Q: What about the EC50 [1] of the same compound?
A: 0.486 µM

Q: With `CCc1ccc(-c2nsc(C(F)(F)F)c2COc2ccc(CC(C)C(=O)O)cc2F)cc1` (stereo not shown) [Cpd 105, 3-(4-((3-(4-ethylphenyl)-5-(trifluoromethyl)isothiazol-4-yl)methoxy)-3-fluorophenyl)-2-methylpropanoic acid] as the compound, how does the EC50 (Human GPR120 short form) read?
A: 0.086 µM

Q: And the EC50 [1]?
A: 0.217 µM

Q: With `COc1ccc(-c2nsc(C(F)(F)F)c2COc2c(F)cc(CCC(=O)O)cc2F)cn1` [Cpd 98, 3-(3,5-difluoro-4-((3-(6-methoxypyridin-3-yl)-5-(trifluoromethyl)isothiazol-4-yl)methoxy)phenyl) propanoic acid] as the compound, how does the EC50 (Human GPR120 short form) read?
A: 0.074 µM

Q: And the EC50 [1]?
A: 0.185 µM
